Measured values: patent US20190064177A1, “INCORPORATING COMPETITIVE BINDING INFORMATION INTO MOLECULAR ARRAY ANALYSIS TO GENERATE FUNCTION NETWORKS OF INTERACTIONS” (ARIZONA BOARD OF REGENTS ON BEHALF OF ARIZONA STATE …, priority 2017, published 2019)

Tested on: diaphorase
Assay: fluorescently labeled diaphorase binding to peptide array with or without excess FAD
Conditions: for 1 microM FAD (array fluorescence of bound diaphorase) / 1 micro no FAD (array fluorescence of bound diaphorase): 1 micromolar labeled diaphorase; for 1 microM FAD (array fluorescence of bound diaphorase) / 10 microM FAD (array fluorescence of bound diaphorase): excess FAD present; for 1 microM FAD (array fluorescence of bound diaphorase) / 1 micro no FAD (array fluorescence of bound diaphorase) / 10 microM FAD (array fluorescence of bound diaphorase) / 10 microM no FAD (array fluorescence of bound diaphorase): 65535 is detector saturation; for 10 microM FAD (array fluorescence of bound diaphorase) / 10 microM no FAD (array fluorescence of bound diaphorase): 10 micromolar labeled diaphorase; for 1 microM noFAD/FAD / 10 microM noFAD/FAD: ratio of binding without FAD to binding with FAD; for 1 microM noFAD/FAD / Meas. ratio: 1 micromolar diaphorase; for 10 microM noFAD/FAD: 10 micromolar diaphorase; for Meas. ratio: ratio without/with FAD calculated from measured binding values
Description: Measurements were performed in which diaphorase was bound to an array of about 126,000 unique sequences. The sequences were chosen simply to cover sequence space. 16 of the natural 20 amino acids were used to make up these sequences with C, I, M and T omitted. The diaphorase was fluorescently labeled and each peptide sequence feature was scanned and fluorescence recorded on the array. Diaphorase bound tightly to some peptides and not at all to others. Two different concentrations of diaphorase were used, 1 and 10 micromolar, and the diaphorase was either bound in the presence of excess FAD or not. […] Indeed the Pearson correlation coefficient between w/ and w/o FAD was >0.97, which actually speaks to the reproducibility of this dataset. However, there are some differences as shown on the scatter plot of FIG. 1. When one takes a ratio of the binding without FAD and the binding with FAD, one finds the following top 30 ratios (Table 1): Note that all these sequences end with a GSG linker sequence. Because there are two concentrations, one can easily check for consistency. Note that 65535 is detector saturation, so one has to ignore those values. For this reason, the lower concentration is used most of the time. […] It appears that this was some kind of error and was ignored in subsequent analysis. A similar conclusion can be made with the 7th highest value. Looking at the sequences, RW or at least R or K followed by a nonpolar or aromatic amino acid at the N-terminus. This is interesting as FAD is negatively charged, though the adenine in FAD looks a bit like tryptophan (see FIG. 2).

Sequence	1 microM FAD (array fluorescence of bound diaphorase)	1 micro no FAD (array fluorescence of bound diaphorase)	10 microM FAD (array fluorescence of bound diaphorase)	10 microM no FAD (array fluorescence of bound diaphorase)	1 microM noFAD/FAD	10 microM noFAD/FAD	Meas. ratio
RWQYYNQKFGSG [array peptide with C-terminal GSG linker]	5458	15697.5	65535	65535	2.876	1	2.88
YNRNAKSSGGSG [array peptide with C-terminal GSG linker]	1546	4014	18565.25	41333.25	2.596	2.226	2.60
FGKLYQLYNDGSG [array peptide with C-terminal GSG linker]	3049	1911.25	34155	15703	0.6268	0.4598	0.63
KEDKVFGFRFDGS	–	–	–	–	–	–	0.70
RFGQNLPLGGSG [array peptide with C-terminal GSG linker]	2103.25	5802.25	34712	63502.5	2.759	1.829	2.76
RQYQKHSYAKFSGSG [array peptide with C-terminal GSG linker]	2460	6757	27275.5	57203.5	2.747	2.097	2.75
PQKSNHFHEAQKR	–	–	–	–	–	–	2.41
WRGFKFADGGSG [array peptide with C-terminal GSG linker]	2156.5	5654.5	31464.5	58885	2.622	1.871	2.62
YVWGLELSGGSG [array peptide with C-terminal GSG linker]	4688.5	2607.5	36320	17286.5	0.5561	0.4759	0.56
YWRFYANWAQLFG	–	–	–	–	–	–	2.56
DANLFGYFKDGGS	–	–	–	–	–	–	0.70
RQRYPKVSGGSG [array peptide with C-terminal GSG linker]	–	–	–	–	–	–	1.71
PRYQNFGGGSG [array peptide with C-terminal GSG linker]	2458	6907	36662	65535	2.81	1.788	2.81
YRFPNAQSPGGSG [array peptide with C-terminal GSG linker]	2373	6240	37721.5	65535	2.63	1.737	2.63
RWRYYWKSEGSG [array peptide with C-terminal GSG linker]	4093.5	11043	51412.25	65535	2.698	1.275	2.70
RWYKNGGSG [array peptide with C-terminal GSG linker]	3658	10176.5	46265.5	64775	2.782	1.4	2.78
DLFQLVFSGSG [array peptide with C-terminal GSG linker]	9011	5775	65535	32672.5	0.6409	0.4986	0.64
NHLLEGAFVSEGS	–	–	–	–	–	–	0.77
DLDKAFGGSG [array peptide with C-terminal GSG linker]	2049.75	607.25	2142.25	1853	0.2963	0.865	0.30
YQRHQNVFAKSGG	–	–	–	–	–	–	2.56
NVSDLSQFYLSGSG [array peptide with C-terminal GSG linker]	3436.25	2144.5	27800.25	6739	0.6241	0.2424	0.62
YSVDYWYQVDGSG [array peptide with C-terminal GSG linker]	10415	1802.5	19218.25	19784.75	0.1731	1.029	0.17
ALDKLSGLWKHVG	–	–	–	–	–	–	0.69
ELFGALFKGGSG [array peptide with C-terminal GSG linker]	3403	2083.5	25315	12943.5	0.6123	0.5113	0.61
LKQLFLEGGSG [array peptide with C-terminal GSG linker]	2474.5	1559.25	23548.25	8696.5	0.6301	0.3693	0.63
YRGAGKNKGGSG [array peptide with C-terminal GSG linker]	–	–	–	–	–	–	1.49
